This passage reports IC50 results from patent US20260356817A1, “AMINOPYRIMIDINE AND AMINOTRIAZINE DERIVATIVES AS MYC PROTEIN MODULATORS” (Sanford Burnham Prebys Medical Discovery Institute, priority 2022, published 2026).

Molecules are shown by their SMILES. Like-named read-outs stand apart in the source and are kept apart here.

In general, IC50 refers to the midpoint of a concentration-inhibition curve.

In this experiment the test system is Myc. In words: Myc inhibition assay: Myc expression per cell by anti-Myc immunofluorescence, high-content imaging. In kind it is cell-based, human (patient-derived medulloblastoma xenograft cells). To be noted: medulloblastoma PDX cells, 4 h. The gist of the method: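 Cells from Myc-driven medulloblastoma patient-derived orthotopic xenografts, propagated only in NSG mouse cerebellum, were dissociated and plated in serum-free medium. After overnight recovery, compounds were applied for 4 hours; cells were then fixed, stained for Myc and DAPI, and per-cell Myc quantified by high-content imaging to derive IC50.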
On the technique in general: A xenograft is tissue or cells of one species grown in another, often human tumour cells in immunodeficient mice.

[1] abbreviates: Table 1, read-out: IC50 (Myc inhibition).
Setting [2] is: Table 2, read-out: MYC Inhibition IC50.

Turning to `c1csc(CNc2nccc(-c3ccc4[nH]cnc4c3)n2)c1` [Compound 75, 4-(1H-benzo[d]imidazol-5-yl)-N-(thiophen-2-ylmethyl)pyrimidin-2-amine], the IC50 is, setting by setting: under setting [1], 1 to 10 µM; under setting [2], 1 to 10 µM.
`Cn1cc(Nc2nccc(-c3ccc4[nH]cnc4c3)n2)cn1` [Compound 77, 4-(1H-benzo[d]imidazol-5-yl)-N-(1-methyl-1H-pyrazol-4-yl)pyrimidin-2-amine]: the IC50 was 0.2 to 1 µM under setting [1] and 0.2 to 1 µM under setting [2].
With `CC(C)Nc1nccc(-c2ccc3[nH]cnc3c2)n1` [Compound 104, 4-(1H-benzo[d]imidazol-5-yl)-N-isopropylpyrimidin-2-amine], the IC50 under setting [1] was in the range of 1 to 10 µM and the IC50 under setting [2] lay in the range of 1 to 10 µM.
For `COc1ccnc(-c2ccnc(Nc3ccccc3)n2)c1` [Compound 217, 4-(4-methoxypyridin-2-yl)-N-phenylpyrimidin-2-amine], the IC50 is, setting by setting: under setting [1], 10 to 100 µM; under setting [2], 10 to 100 µM.
Take `Cn1cnc2ccc(-c3ccnc(Nc4cccc(C(F)(F)F)c4)n3)cc21` [Compound 41, 4-(1-methyl-1H-benzo[d]imidazol-6-yl)-N-(3-(trifluoromethyl)phenyl)pyrimidin-2-amine]: the IC50 by setting is: under setting [1], under 0.2 µM; under setting [2], under 0.2 µM.
In the case of `Oc1ccnc(-c2ccnc(Nc3cccc(F)c3)n2)c1` [Compound 182, 2-(2-((3-fluorophenyl)amino)pyrimidin-4-yl)pyridin-4-ol], the IC50 is 1 to 10 µM under setting [1] and 1 to 10 µM under setting [2].
As to `O=C(Nc1ccccc1)c1cccc(Nc2nccc(-c3ccc4[nH]cnc4c3)n2)c1` [Compound 263, 3-((4-(1H-benzo[d]imidazol-5-yl)pyrimidin-2-yl)amino)-N-phenylbenzamide], the IC50 runs as follows: under setting [1], under 0.2 µM; under setting [2], under 0.2 µM.
In the case of `FC(F)(F)c1cccc(Nc2cc(-c3ccc4[nH]cnc4c3)ccn2)c1` [Compound 52, 4-(1H-benzo[d]imidazol-5-yl)-N-(3-(trifluoromethyl)phenyl)pyridin-2-amine], the IC50 runs as follows: under setting [1], 1 to 10 µM; under setting [2], 1 to 10 µM.
Consider `Fc1cccc(Nc2nccc(-c3ccc4ocnc4c3)n2)c1` [Compound 271, 4-(benzo[d]oxazol-5-yl)-N-(3-fluorophenyl)pyrimidin-2-amine], for which the IC50 reads like this: under setting [1], 1 to 10 µM; under setting [2], 1 to 10 µM.
In the case of `COc1cc(-c2ccnc(Nc3cccc(F)c3F)n2)ccn1` [Compound 206, N-(2,3-difluorophenyl)-4-(2-methoxypyridin-4-yl)pyrimidin-2-amine], the IC50 runs as follows: under setting [1], 10 to 100 µM; under setting [2], 10 to 100 µM.
In the case of `Oc1cc(-c2ccnc(Nc3cncnc3)n2)ccn1` [Compound 178, 4-(2-(pyrimidin-5-ylamino)pyrimidin-4-yl)pyridin-2-ol], the IC50 under setting [1] fell in the range of 10 to 100 µM and the IC50 under setting [2] was in the range of 10 to 100 µM.
Regarding `c1ccc(-n2cc(Nc3nccc(-c4ccc5[nH]cnc5c4)n3)cn2)nc1` [Compound 35, 4-(1H-benzo[d]imidazol-5-yl)-N-(1-(pyridin-2-yl)-1H-pyrazol-4-yl)pyrimidin-2-amine], the IC50 reads like this: under setting [1], under 0.2 µM; under setting [2], under 0.2 µM.
With `Oc1cc(-c2ncnc(Nc3ccccc3)n2)ccn1` [Compound 233, 4-(4-(phenylamino)-1,3,5-triazin-2-yl)pyridin-2-ol], the IC50 lay in the range of 1 to 10 µM under setting [1] and 1 to 10 µM under setting [2].
In the case of `COc1cccc(-c2ccnc(Nc3ccccc3OC)n2)c1` [Compound 248, N-(2-methoxyphenyl)-4-(3-methoxyphenyl)pyrimidin-2-amine], the IC50 was 10 to 100 µM under setting [1] and 10 to 100 µM under setting [2].
In the case of `COc1cc(-c2ccnc(Nc3ccccc3F)n2)ccn1` [Compound 208, N-(2-fluorophenyl)-4-(2-methoxypyridin-4-yl)pyrimidin-2-amine], the IC50 under setting [1] was 10 to 100 µM and the IC50 under setting [2] was in the range of 10 to 100 µM.
Turning to `Fc1cc2[nH]cnc2cc1-c1ccnc(Nc2cccc(C(F)(F)F)c2)n1` [Compound 126, 4-(6-fluoro-1H-benzo[d]imidazol-5-yl)-N-(3-(trifluoromethyl)phenyl)pyrimidin-2-amine], the IC50 is 0.2 to 1 µM under setting [1] and 0.2 to 1 µM under setting [2].
